Earlier results on 1 molecule are cited in publication PMC9835671 (The Pediatric Infectious Disease Journal, 2022).

For series [1] the following is noted: adults.
The subject of a further series is serum albumin. Particulars: intravenously administered.
Another series concerns ABSSSI. Particulars: for Clinical response: microbiological ITT population.
Series [2] has as its system S aureus. Particulars: neutropenic murine thigh infection model.
Series [3] has as its system S aureus. Particulars: adult popPK model; 1000-mg (double-dose) and 1500-mg (single-dose) doses; MIC ≤2 mg/L.
For series [4], the system named is S aureus.

In brackets after ≈: the same amount, converted by molar mass. Like-named read-outs stand apart in the source and are kept apart here.

Turning to `CN[C@H]1C(=O)N[C@@H]2Cc3ccc(cc3)Oc3cc4cc(c3O[C@@H]3O[C@H](C(=O)O)[C@@H](O)[C@H](O)[C@H]3NC(=O)CCCCCCCCC(C)C)Oc3ccc(cc3Cl)[C@@H](O)[C@@H]3NC(=O)[C@H](NC(=O)[C@@H]4NC(=O)[C@@H](NC2=O)c2cc(cc(O)c2Cl)Oc2cc1ccc2O)c1ccc(O)c(c1)-c1c(O[C@H]2O[C@H](CO)[C@@H](O)[C@H](O)[C@@H]2O)cc(O)cc1[C@@H](C(=O)NCCCN(C)C)NC3=O` [dalbavancin], the “terminal elimination half-life (t1/2)” value in series [1] was above 14 days. Also, the “bound to serum albumin” value with serum albumin is ~ 93%. For the same molecule, the unbound form with serum albumin is 7%. Moreover, the Clinical response is recorded as 97.3% in the series on ABSSSI (double-dose regimen, end-of-treatment); 97.3% with ABSSSI (double-dose regimen, follow-up); 94.8% in the series with ABSSSI (single-dose regimen, end-of-treatment); 97.4% in the series on ABSSSI (single-dose regimen, follow-up). The “patients who achieved a clinical cure” value in the series on ABSSSI (test-of-cure) is listed as above 96%. The “24-hour fAUC/MIC target for bacterial stasis” value with S aureus [2] was 27.1 h. The “simulated patients predicted to achieve the stasis target” value in the series with S aureus [3] was above 99%. Further, the CLSI susceptibility breakpoint in the series with S aureus [4] (Clinical and Laboratory Standards Institute) is 0.25 µg/mL. For the same molecule, the MIC90 with S aureus [4] (against S aureus) was 0.03 µg/mL (≈ 0.0165 µM).
